Publication PMC8533176, “1,5-Benzodiazepin-2(3H)-ones: In Vitro Evaluation as Antiparkinsonian Agents” (Antioxidants, 2021)
Where two headings read alike, the source gives them in different places.

Tests used:
[1] = tested on: HepG2 cells; experiment: Cytotoxicity, MTT assay, HepG2; assay type: cell-based; conditions: Homo sapiens
Experimental: (§1) All compounds tested were dissolved and eventually further diluted in dimethylsulfoxide (DMSO). After overnight incubation, the cells were treated with different compound concentrations (5, 10, 20, 50, 100, 150, 200 µM) in a final volume of 200 µL with four replicates each. […] Cell proliferation or viability was measured using the 3-(4,5-dimethylthiazol-2-yl)-2,5-diphenyl tetrazolium bromide (MTT) assay. The MTT assay was optimized taking into account the number of cells plated per well, to work in the linear part of the cell density vs. MTT absorbance calibration curve, which allows achieving a maximum absorbance in the range of 0.8–1.0 in each well at the end of the experiment. In addition to that, the number of cells seeded for each experiment was optimized in agreement with the time scale of the experiment.
(§2) After cell treatment, 20 µL of MTT (5 mg/mL) was added to each well, and the plate was incubated at 37 °C in the dark for 2 h. Supernatants were removed, and the formazan crystals were solubilized in DMSO (200 µL/well), under 10 min shaking at room temperature. The reduction of MTT was quantified by absorbance at 570 nm in a Varioskan microplate reader (Thermo Fisher Scientific, Vantaa, Finland). Effects of the test compounds on cell viability were calculated using cells treated with a vehicle as a control. For IC50 and LD50 calculations, the data were subjected to linear regression analysis, and the regression lines were plotted for the best fit. The IC50 (inhibition of cell viability) concentrations were calculated using the respective dose–response curves.

[2] = tested on: SH-SY5Y cells; experiment: Cytotoxicity, MTT assay, SH-SY5Y; assay type: cell-based; conditions: Homo sapiens, read-out: SH-SY5Y IC50
Experimental: as §1, §2

[3] = ABTS radical scavenging assay; assay type: biochemical; conditions: for IC50: 30-min incubation; for ABTS Assay TEAC50: Equivalent antioxidant capacity at Trolox 50 mM; for ABTS Assay TEAC100: Equivalent antioxidant capacity at Trolox 100 mM
Experimental: The mixture was stored in the dark at room temperature for 16 h. […] All the compounds tested were dissolved in EtOH. […] The degree of decolorization was calculated as the percentage reduction of absorbance. […] Trolox was used as a reference antioxidant.

[4] = Ferric reducing antioxidant power (FRAP) assay; assay type: biochemical; set-up: FRAP Assay Trolox Equivalents: unit not given here; conditions: for FRAP Assay Antioxidant Capacity (%) at 100 uM: compound at 100 uM; for FRAP Assay Antioxidant Capacity (%) at 200 uM: compound at 200 uM
Experimental: FRAP reagent was prepared by mixing 10 mL of 300 mM acetate buffer with 1 mL of 10 mM 2,4,6-tripyridyl-S-triazine (TPTZ) in HCl 40 mM and 1mL of FeCl3·6H2O 20 mM. […] Trolox was used as assay control.

[5] = Kinetic solubility by UV spectrometry; assay type: physicochemical; conditions: PBS 50 mM, aqueous buffer, kinetic from dmso stock
Experimental: A modified protocol was used from that described by Hoelke et al. for the determination of the kinetic solubility from DMSO compound solutions. A compound calibration curve (compound concentration vs UV absorption) was prepared for each compound with concentrations of 10, 20, 50, 100, and 200 µM. Each compound dilution was carried out by pipetting defined volumes of a 20 mM stock compound solution in DMSO into vials and adding PBS 50 mM to reach a final volume of 1 mL/well. The final amount of DMSO per well was 2%. For the lower compound concentrations, an additional volume of DMSO was added to each well to reach 2% DMSO. Then, 200 µL of each dilution was transferred to a new 96-well culture plate for the measurement of the UV-spectra. One well in each row was left without a compound as a blank, and its UV absorbance was used as an offset correction. The experiments were performed in duplicate.
In parallel, compound saturation solutions were reached and filtered from 20 mM compound stock in DMSO: 10 µL of a 20 mM stock solution was dispensed into 190 µL of PBS 10 mM. The solutions were mixed, shaken on a microplate shaker for two hours, and then 160 µL of each solution was filtered and transferred to a new well plate for UV absorption measurement.
Measurement of the UV-spectra was performed using a Varioskan microplate reader, and spectra were taken in the range of 270–600 nm. Spectral bandwidth was set to 5 nm, and the data pint interval was 10 nm. The experiments were carried out in triplicate.

[6] = HepG2, MTT, cytotoxicity, read-out: HepG2 IC50

SMILES | IC50 [1, 6] | IC50 ([2]; MTT, cytotoxicity) | IC50 [3] | FRAP Assay Trolox Equivalents [4] | FRAP Assay Antioxidant Capacity (%) at 100 uM [4] | FRAP Assay Antioxidant Capacity (%) at 200 uM [4] | solubility [5] | melting point | ABTS Assay TEAC50 [3] | ABTS Assay TEAC100 [3] | IC50 ([1]; HepG2, read-out: HepG2 IC50) | IC50 [2]
CN1C(=O)CC(c2ccccc2)=Nc2cc(F)cc(F)c21 [Compound 16, 7,9-Difluoro-1-methyl-4-phenyl-1H-1,5-benzodiazepin-2(3H)-one] | > 250 µM | > 250 µM | > 1000 µM | 0.00 | 0% | 0% | > 200 µM | – | – | – | – | –
COc1cc(C2=Nc3cc(Cl)c(Cl)cc3NC(=O)C2)cc(OC)c1OC [Compound 23, 7,8-Dichloro-4-(3,4,5-trimethoxyphenyl)-1H-1,5-benzodiazepin-2(3H)-one] | – | > 250 µM | > 500 µM | 0.03 | 2.7% | 4.6% | < 20 µM | 246 °C | – | – | – | –
O=C1CC(c2ccccc2)=Nc2c(F)c(F)c(F)c(F)c2N1 [Compound 3, 6,7,8,9-tetrafluoro-4-phenyl-1H-1,5-benzodiazepin-2(3H)-one] | > 250 µM | > 250 µM | > 1000 µM | 0.03 | 1.5% | 1.8% | < 100 µM | 253.3 °C | – | – | – | –
COc1cc(C2=Nc3cc(C)c(C)cc3NC(=O)C2)cc(OC)c1OC [Compound 21, 7,8-Dimethyl-4-(3,4,5-trimethoxyphenyl)-1H-1,5-benzodiazepin-2(3H)-one] | > 250 µM | > 250 µM | 137 ± 5.3 µM | 0.89 | 47.2% | 60.9% | < 100 µM | 208.5 °C | 0.36 | 0.21 | – | –
O=C1CC(c2ccccc2Cl)=Nc2c(F)c(F)c(F)c(F)c2N1 [Compound 7, 6,7,8,9-tetrafluoro-4-(2-chlorophenyl)-1H-1,5-benzodiazepin-2(3H)-one] | 201 ± 13.1 µM | 135 ± 11.2 µM | 635 ± 87 µM | 0.01 | 0.6% | 0.4% | < 50 µM | 211.7 °C | 0.35 | 0.16 | – | –
O=C1CC(c2ccccc2)=Nc2c(F)cc(F)cc2N1 [Compound 17, 6,8-Difluoro-4-phenyl-1H-1,5-benzodiazepin-2(3H)-one] | > 250 µM | > 250 µM | > 1000 µM | 0.04 | 1.8% | 2.5% | < 50 µM | 221.5 °C | – | – | – | –
CN1C(=O)CC(c2ccccc2)=Nc2ccc(F)cc21 [Compound 12, 8-Fluoro-1-methyl-4-phenyl-1H-1,5-benzodiazepin-2(3H)-one] | – | – | > 1000 µM | 0.02 | 0.8% | 1.4% | > 200 µM | – | – | – | 230 ± 25.5 µM | 240 ± 24.9 µM
CC1=Nc2c(F)c(F)c(F)c(F)c2NC(=O)C1 [Compound 1, 6,7,8,9-Tetrafluoro-4-methyl-1H-1,5-benzodiazepin-2(3H)-one] | > 250 µM | > 250 µM | 576 ± 40 µM | 0.01 | 0.5% | 0.5% | > 200 µM | 155.2 °C | 0.33 | 0.16 | – | –
Cc1c(C)c2c(c(C)c1O)CCC(C)(C(=O)O)O2 (centres unmarked) [Trolox, reference compound] | – | – | 25.1 ± 1.2 µM | 1 | 51.3% | 100% | – | – | 1 | 1 | – | –
CN1C(=O)CC(c2ccccc2)=Nc2ccccc21 [Compound 19, 1-Methyl-4-phenyl-1H-1,5-benzodiazepin-2(3H)-one] | – | – | > 1000 µM | 0.03 | 1.7% | 3.5% | > 200 µM | – | – | – | > 250 µM | 201 ± 27 µM
CC1=Nc2c(F)c(F)c(F)c(F)c2N(C)C(=O)C1 [Compound 2, 6,7,8,9-tetrafluoro-1,4-dimethyl-1H-1,5-benzodiazepin-2(3H)-one] | > 250 µM | > 250 µM | > 1000 µM | 0.02 | 1.00% | 0.5% | > 200 µM | 132.2 °C | – | – | – | –
O=C1CC(c2ccccc2)=Nc2cc(F)cc(F)c2N1 [Compound 15, 7,9-Difluoro-4-phenyl-1H-1,5-benzodiazepin-2(3H)-one] | > 250 µM | > 250 µM | 496 ± 82 µM | 0.07 | 3.8% | 6.2% | < 10 µM | – | 0.34 | 0.15 | – | –
CN1C(=O)CC(c2ccccc2)=Nc2c(F)c(F)c(F)c(F)c21 [Compound 4, 6,7,8,9-tetrafluoro-4-phenyl-1-methyl-1H-1,5-benzodiazepin-2(3H)-one] | > 250 µM | > 250 µM | > 1000 µM | 0.02 | 1.1% | 1.3% | – | 133.7 °C | – | – | – | –
